The values that follow come from article PMC3501500, “Conformational Selection Underlies Recognition of a Molybdoenzyme by Its Dedicated Chaperone” (PLoS ONE, 2012).

The test system of experiment [1] is NarJ. The note with it: NMR; isolated NarG(1–15) peptide vs NarJ-bound; ref [18]; cited from earlier work.
Experiment [2] deals with T1, NarG(1–15) peptide (Escherichia coli, UniProt P09152).
T1 sequence (P09152 whole entry, looked up): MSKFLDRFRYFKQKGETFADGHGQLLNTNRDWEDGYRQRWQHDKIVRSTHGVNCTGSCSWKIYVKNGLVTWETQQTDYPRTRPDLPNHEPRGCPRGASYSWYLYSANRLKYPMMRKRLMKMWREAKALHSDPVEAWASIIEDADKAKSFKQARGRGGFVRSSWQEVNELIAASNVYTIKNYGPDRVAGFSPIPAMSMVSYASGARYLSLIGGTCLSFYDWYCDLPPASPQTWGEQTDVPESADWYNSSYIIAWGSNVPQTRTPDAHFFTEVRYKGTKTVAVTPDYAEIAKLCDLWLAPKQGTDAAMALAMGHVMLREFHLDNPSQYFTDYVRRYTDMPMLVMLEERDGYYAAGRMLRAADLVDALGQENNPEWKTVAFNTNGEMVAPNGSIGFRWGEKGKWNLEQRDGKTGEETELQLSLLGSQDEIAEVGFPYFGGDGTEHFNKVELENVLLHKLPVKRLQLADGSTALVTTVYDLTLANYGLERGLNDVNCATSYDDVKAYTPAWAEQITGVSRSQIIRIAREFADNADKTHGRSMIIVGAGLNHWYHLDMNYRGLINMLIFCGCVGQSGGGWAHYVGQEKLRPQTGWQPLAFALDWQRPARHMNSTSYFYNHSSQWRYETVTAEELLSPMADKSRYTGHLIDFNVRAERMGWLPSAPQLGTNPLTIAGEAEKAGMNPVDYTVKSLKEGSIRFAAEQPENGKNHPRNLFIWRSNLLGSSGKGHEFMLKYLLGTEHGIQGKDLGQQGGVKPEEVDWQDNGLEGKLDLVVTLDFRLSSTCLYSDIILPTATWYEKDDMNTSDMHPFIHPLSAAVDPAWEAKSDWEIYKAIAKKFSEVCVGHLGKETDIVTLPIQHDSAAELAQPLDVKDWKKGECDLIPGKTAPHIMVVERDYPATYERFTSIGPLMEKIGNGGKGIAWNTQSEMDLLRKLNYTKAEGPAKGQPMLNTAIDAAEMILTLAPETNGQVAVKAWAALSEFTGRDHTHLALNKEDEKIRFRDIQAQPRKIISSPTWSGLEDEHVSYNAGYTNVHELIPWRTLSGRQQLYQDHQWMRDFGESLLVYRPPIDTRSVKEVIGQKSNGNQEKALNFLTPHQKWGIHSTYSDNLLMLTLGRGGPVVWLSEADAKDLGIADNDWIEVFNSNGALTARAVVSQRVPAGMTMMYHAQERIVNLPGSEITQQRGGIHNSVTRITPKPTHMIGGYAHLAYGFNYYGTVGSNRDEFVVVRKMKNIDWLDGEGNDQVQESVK
The settings on record: 2 µM NarJT, 50 mM Tris-HCl pH 7.5, 1 mM MgCl2, 296 K; peptide stock 50 µM.
Protocol: Tryptophan fluorescence spectroscopy
Increasing concentrations of NarG(1–15) peptide at 50 µM (initial concentration) were then added and the emission fluorescence was scanned. Excitation was at 285 nm and emission was recorded from 310 to 410 nm with excitation and emission band-passes at 2 nm. […] Dissociation constants were calculated by plotting relative fluorescence peak integration against ligand concentration and curve-fitting using Origin software.
Indicated values are the average of at least three independent measurements.

On to “NarG(1–15) peptide: N-terminal NarG peptide, first 15 residues, chemically synthesized and purified by Synprosis (MSKFLDRFRYFKQKG; UniProt P09152 1-15, looked up, fragment)”, for which the “structure of peptide upon NarJ binding (in words)” value in experiment [1] is given as “remains unchanged upon NarJ binding”. Further, the “maximal decrease of the tryptophan fluorescence of NarJT upon peptide addition” value in experiment [2] amounted to 30%.
